Results reported in patent US20260028326A1, “COMPOUND BASED ON ISOINDOLINE-SUBSTITUTED GLUTARIMIDE BACKBONE AND USE THEREOF” (GLUETACS THERAPEUTICS (SHANGHAI) CO., LTD., priority 2022, published 2026).

biological target: human Cereblon WT GST-tagged protein (Homo sapiens (Human), UniProt Q96SW2); experiment: CRBN-binding affinity, HTRF (CEREBLON BINDING kit)
Outline: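 HTRF competition readout: compounds compete with a thalidomide-Re conjugate for GST-tagged wild-type human CRBN detected via Eu-labelled anti-GST antibody. Inhibition rate derived relative to protein-free blank wells.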

human Cereblon WT GST-tagged protein, sequence (Q96SW2 whole entry): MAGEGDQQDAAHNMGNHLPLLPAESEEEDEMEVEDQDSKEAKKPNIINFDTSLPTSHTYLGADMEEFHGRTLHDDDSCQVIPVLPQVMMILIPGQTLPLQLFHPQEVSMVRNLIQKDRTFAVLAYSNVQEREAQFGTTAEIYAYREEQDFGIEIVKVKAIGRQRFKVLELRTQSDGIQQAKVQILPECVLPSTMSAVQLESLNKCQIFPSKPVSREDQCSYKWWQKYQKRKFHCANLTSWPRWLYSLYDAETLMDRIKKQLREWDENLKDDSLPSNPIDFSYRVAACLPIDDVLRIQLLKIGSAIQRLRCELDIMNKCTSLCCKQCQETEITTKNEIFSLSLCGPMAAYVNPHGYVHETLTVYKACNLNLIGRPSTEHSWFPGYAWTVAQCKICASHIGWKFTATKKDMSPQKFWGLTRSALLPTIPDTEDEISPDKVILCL

CC1(C)CCC(C(=O)N2CC(=Cc3ccc4c(c3)CN(C3CCC(=O)NC3=O)C4=O)C2)=C(c2ccc(F)cc2)C1 (centres unmarked) [GT-05489, 3-(5-((1-(4′-fluoro-5,5-dimethyl-3,4,5,6-tetrahydro-[1,1′-biphenyl]-2-carbonyl)azetidin-3-ylidene)methyl)-1-oxoisoindolin-2-yl)piperidine-2,6-dione] and CC1(C)CCC(C(=O)N2CC(Cc3ccc4c(c3)CN(C3CCC(=O)NC3=O)C4=O)C2)=C(c2ccc(F)cc2)C1 (centres unmarked) [GT-05488, 3-(5-((1-(4′-fluoro-5,5-dimethyl-3,4,5,6-tetrahydro-[1,1′-biphenyl]-2-carbonyl)azetidin-3-yl)methyl)-1-oxoisoindolin-2-yl)piperidine-2,6-dione] are within 1.5-fold of each other in IC50: 610 nM for the first, 600 nM for the second.

Compared with CC1(C)CCC(CN2CC3CCC(C2)N3C(=O)c2ccc3c(c2)CN(C2CCC(=O)NC2=O)C3=O)=C(c2ccc(Cl)cc2)C1 (centres unmarked) [GT-05458, 3-(5-(3-((4′-chloro-5,5-dimethyl-3,4,5,6-tetrahydro-[1,1′-biphenyl]-2-yl)methyl)-3,8-diazabicyclo[3.2.1]octane-8-carbonyl)-1-oxoisoindolin-2-yl)piperidine-2,6-dione], CC1(C)CCC(CN2CC3CC(C2)N3C(=O)c2ccc3c(c2)CN(C2CCC(=O)NC2=O)C3=O)=C(c2ccc(Cl)cc2)C1 (centres unmarked) [GT-05440, 3-(5-(3-((4′-chloro-5,5-dimethyl-3,4,5,6-tetrahydro-[1,1′-biphenyl]-2-yl)methyl)-3,6-diazabicyclo[3.1.1]heptane-6-carbonyl)-1-oxoisoindolin-2-yl)piperidine-2,6-dione] is 1.5-fold lower in IC50: 1410 nM for the first, 940 nM for the second. The second is the more potent here.

Compared with O=C1CCC(N2Cc3cc(CN4CC5(C4)CN(C(=O)c4ccccc4-c4ccc(Cl)cc4)C5)ccc3C2=O)C(=O)N1 (centres unmarked) [GT-05708, 3-(5-((6-(4′-chloro-[1,1′-biphenyl]-2-carbonyl)-2,6-diazaspiro[3.3]heptan-2-yl)methyl)-1-oxoisoindolin-2-yl)piperidine-2,6-dione], O=C1CCC(N2Cc3cc(NC4CN(C(=O)c5ccccc5-c5ccc(Cl)cc5)C4)ccc3C2=O)C(=O)N1 (centres unmarked) [GT-04397, 3-(5-((1-(4′-chloro-[1,1′-biphenyl]-2-carbonyl)azetidin-3-yl)amino)-1-oxoisoindolin-2-yl)piperidine-2,6-dione] is 2.8-fold lower in IC50: 550 nM for the first, 200 nM for the second. The second is the more potent here.

Going from CC1(C)CCC(CN2CC3CCC2CN3c2ccc3c(c2)C(=O)N(C2CCC(=O)NC2=O)C3=O)=C(c2ccc(F)cc2)C1 (centres unmarked) [GT-05388, 2-(2,6-dioxopiperidin-3-yl)-5-(5-((4′-fluoro-5,5-dimethyl-3,4,5,6-tetrahydro-[1,1′-biphenyl]-2-yl)methyl)-2,5-diazabicyclo[2.2.2]octan-2-yl)isoindoline-1,3-dione] to CC1(C)CCC(CN2CC3CCC2CN3c2ccc3c(c2)C(=O)N(C2CCC(=O)NC2=O)C3=O)=C(c2ccc(Cl)cc2)C1 (centres unmarked) [GT-05379, 5-(5-((4′-chloro-5,5-dimethyl-3,4,5,6-tetrahydro-[1,1′-biphenyl]-2-yl)methyl)-2,5-diazabicyclo[2.2.2]octan-2-yl)-2-(2,6-dioxopiperidin-3-yl)isoindoline-1,3-dione], the IC50 falls from 410 nM to 110 nM (3.7-fold).

O=C1CCC(N2Cc3c(CN4CCN(CC5=C(c6ccc(F)cc6)CCCC5)CC4)cccc3C2=O)C(=O)N1 (centres unmarked) [GT-05861, 3-(4-((4-((4′-fluoro-3,4,5,6-tetrahydro-[1,1′-biphenyl]-2-yl)methyl)piperazin-1-yl)methyl)-1-oxoisoindolin-2-yl)piperidine-2,6-dione] and O=C1CCC(N2Cc3cc(CN4CCN(Cc5ccccc5-c5ccc(Cl)cc5)CC4)cc(F)c3C2=O)C(=O)N1 (centres unmarked) [GT-03696, 3-(5-((4-((4′-chloro-[1,1′-biphenyl]-2-yl)methyl)piperazin-1-yl)methyl)-7-fluoro-1-oxoisoindolin-2-yl)piperidine-2,6-dione] are within 1.5-fold of each other in IC50: 1290 nM for the first, 880 nM for the second.

CC1(C)CCC(CN2CC(Cc3ccc4c(c3)CN(C3CCC(=O)NC3=O)C4=O)C2)=C(c2ccc(F)cc2)C1 (centres unmarked) [GT-05493, 3-(5-((1-((4′-fluoro-5,5-dimethyl-3,4,5,6-tetrahydro-[1,1′-biphenyl]-2-yl)methyl)azetidin-3-yl)methyl)-1-oxoisoindolin-2-yl)piperidine-2,6-dione] and CC1(C)CCC(CN2CC(Cc3ccc4c(c3)CN(C3CCC(=O)NC3=O)C4=O)C2)=C(c2ccc(Cl)cc2)C1 (centres unmarked) [GT-05428, 3-(5-((1-((4′-chloro-5,5-dimethyl-3,4,5,6-tetrahydro-[1,1′-biphenyl]-2-yl)methyl)azetidin-3-yl)methyl)-1-oxoisoindolin-2-yl)piperidine-2,6-dione] are within 1.5-fold of each other in IC50: 760 nM for the first, 1080 nM for the second.

O=C1CCC(N2C(=O)c3ccc(CN4CCN(C(=O)C5=C(c6ccc(F)cc6)CCCC5)CC4)cc3C2=O)C(=O)N1 (centres unmarked) [GT-05468, 2-(2,6-dioxopiperidin-3-yl)-5-((4-(4′-fluoro-3,4,5,6-tetrahydro-[1,1′-biphenyl]-2-carbonyl)piperazin-1-yl)methyl)isoindoline-1,3-dione] and O=C1CCC(N2Cc3cccc(CN4C5CC4CN(C(=O)C4=C(c6ccc(F)cc6)CCCC4)C5)c3C2=O)C(=O)N1 (centres unmarked) [GT-05480, 3-(7-((3-(4′-fluoro-3,4,5,6-tetrahydro-[1,1′-biphenyl]-2-carbonyl)-3,6-diazabicyclo[3.1.1]heptan-6-yl)methyl)-1-oxoisoindolin-2-yl)piperidine-2,6-dione] are within 1.5-fold of each other in IC50: 1500 nM for the first, 1740 nM for the second.

Going from O=C1CCC(N2Cc3cc(CN4C5CC4CN(C(=O)C4=C(c6ccc(F)cc6)CCCC4)C5)cc(F)c3C2=O)C(=O)N1 (centres unmarked) [GT-05477, 3-(7-fluoro-5-((3-(4′-fluoro-3,4,5,6-tetrahydro-[1,1′-biphenyl]-2-carbonyl)-3,6-diazabicyclo[3.1.1]heptan-6-yl)methyl)-1-oxoisoindolin-2-yl)piperidine-2,6-dione] to CC1(C)CCC(CN2C3CC2CN(C(=O)c2ccc4c(c2)CN(C2CCC(=O)NC2=O)C4=O)C3)=C(c2ccc(F)cc2)C1 (centres unmarked) [GT-05671, 3-(5-(6-((4′-fluoro-5,5-dimethyl-3,4,5,6-tetrahydro-[1,1′-biphenyl]-2-yl)methyl)-3,6-diazabicyclo[3.1.1]heptane-3-carbonyl)-1-oxoisoindolin-2-yl)piperidine-2,6-dione], the IC50 falls from 660 nM to 300 nM (2.2-fold).

Going from CC1(C)CCC(CN2CC3CCC2CN3Cc2ccc3c(c2)C(=O)N(C2CCC(=O)NC2=O)C3)=C(c2ccc(Cl)cc2)C1 (centres unmarked) [GT-05485, 3-(6-((5-((4′-chloro-5,5-dimethyl-3,4,5,6-tetrahydro-[1,1′-biphenyl]-2-yl)methyl)-2,5-diazabicyclo[2.2.2]octan-2-yl)methyl)-1-oxoisoindolin-2-yl)piperidine-2,6-dione] to O=C1CCC(N2Cc3cc(C(=O)N4C5CCC4CN(Cc4ccccc4-c4ccc(Cl)cc4)C5)ccc3C2=O)C(=O)N1 (centres unmarked) [GT-05638, 3-(5-(3-((4′-chloro-[1,1′-biphenyl]-2-yl)methyl)-3,8-diazabicyclo[3.2.1]octane-8-carbonyl)-1-oxoisoindolin-2-yl)piperidine-2,6-dione], the IC50 rises from 740 nM to 1210 nM (1.6-fold).

Going from O=C1CCC(N2C(=O)c3ccc(N4CC5CCC4CN5Cc4ccccc4-c4ccc(Cl)cc4)cc3C2=O)C(=O)N1 (centres unmarked) [GT-05374, 5-(5-((4′-chloro-[1,1′-biphenyl]-2-yl)methyl)-2,5-diazabicyclo[2.2.2]octan-2-yl)-2-(2,6-dioxopiperidin-3-yl)isoindoline-1,3-dione] to O=C1CCC(N2Cc3cc(CCN4CCN(Cc5ccccc5-c5ccc(Cl)cc5)CC4)ccc3C2=O)C(=O)N1 (centres unmarked) [GT-05876, 3-(5-(2-(4-((4′-chloro-[1,1′-biphenyl]-2-yl)methyl)piperazin-1-yl)ethyl)-1-oxoisoindolin-2-yl)piperidine-2,6-dione], the IC50 falls from 520 nM to 120 nM (4.3-fold). The second is the more potent here.
